The structures appear in SMILES notation.

For 1 compound, IC50 results are on record in PubChem BioAssay AID624394 (The Scripps Research Institute Molecular Screening Center, 2012).

The assay addresses Photoreceptor-specific nuclear receptor (Homo sapiens) (UniProt Q9Y5X4). Kind of assay: concentration-response of NR2E3 activators – cell-based, luminescence, luciferase reporter, dose response (AID 624394).

Chain of Photoreceptor-specific nuclear receptor (Homo sapiens) (Q9Y5X4 whole entry, looked up): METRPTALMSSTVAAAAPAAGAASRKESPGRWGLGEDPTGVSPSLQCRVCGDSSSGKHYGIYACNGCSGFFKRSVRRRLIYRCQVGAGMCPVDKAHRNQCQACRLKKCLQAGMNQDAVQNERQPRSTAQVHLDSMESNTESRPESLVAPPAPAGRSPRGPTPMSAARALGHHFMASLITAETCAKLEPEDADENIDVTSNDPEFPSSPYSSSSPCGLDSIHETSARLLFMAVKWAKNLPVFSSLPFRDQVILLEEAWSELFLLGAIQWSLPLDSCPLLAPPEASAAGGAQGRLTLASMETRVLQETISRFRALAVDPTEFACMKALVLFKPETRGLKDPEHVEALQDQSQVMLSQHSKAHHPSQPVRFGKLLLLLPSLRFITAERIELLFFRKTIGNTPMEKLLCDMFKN

For the compound `CCOP(=O)(CCP(=O)(OCC)OCC)OCC.C[CH2][Sn]([Cl])([Cl])[CH2]C`, the half-maximal inhibitory concentration (IC50) was 478 nM.
